Some test systems named below: A498 renal; IGROV1 ovarian; HOP-92 NSCLC; A549 NSCLC; SNB-75 CNS; RPMI-8226 leukemia; KM12 colon; CAKI-1 renal; HT29 colon; NCI-H522 lung.
Holding throughout (experiment): NCI tumour cell line growth inhibition, 48 h

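Where inhibition never reached the appropriate level, the endpoint shown equals the highest concentration tested. Otherwise, values were interpolated linearly from a five-concentration, 48-hour dose response in 96-well plates. TGI marks complete inhibition of growth.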

`CCOc1cc(NC(C)=O)ccc1C(=O)NN1C(=O)C(Cl)C1c1ccco1` (stereo not given): the TGI is 30.8 µM in the experiment on A498 renal; 28.8 µM in the experiment with IGROV1 ovarian; 35.3 µM in the experiment with HOP-92 NSCLC; 38.8 µM with A549 NSCLC; 26.7 µM with SNB-75 CNS; 45.5 µM with RPMI-8226 leukemia. In addition, the TGI is 33.6 µM in the experiment on KM12 colon, 30.9 µM with CAKI-1 renal, 38.8 µM in the experiment with HT29 colon and 25.5 µM in the experiment with NCI-H522 lung.

Turning to `C[C@H]1C=C2[C@@H]3CC(C)(C(=O)O)CC[C@]3(C)CC[C@]2(C)[C@]2(C)CC[C@H]3C(C)(C)[C@@H](OC(=O)c4cccc5c(=O)c6ccccc6[nH]c45)CC[C@]3(C)[C@@H]12` (stereo not given in full), the TGI with A498 renal, in the experiment on IGROV1 ovarian, in the experiment on HOP-92 NSCLC, in the experiment on A549 NSCLC, in the experiment with SNB-75 CNS and in the experiment on RPMI-8226 leukemia was greater than 100 µM in each case. Besides, the TGI in the experiment on KM12 colon, in the experiment on CAKI-1 renal, with HT29 colon and with NCI-H522 lung was greater than 100 µM throughout.

For `COc1cc(C(c2ccc3c(c2)OCO3)N2C(=O)CCC2C(=O)O)cc(OC)c1OC` (stereo not given), the TGI in the experiment with A498 renal, with IGROV1 ovarian, with HOP-92 NSCLC, with A549 NSCLC, with SNB-75 CNS and with RPMI-8226 leukemia was greater than 100 µM in each case. The TGI in the experiment with KM12 colon, in the experiment on CAKI-1 renal, with HT29 colon and with NCI-H522 lung was greater than 100 µM throughout.

`OC(c1ccc(-c2ccccc2)cc1)C(F)(F)c1nc2ccccc2o1` (stereo not given): the TGI in the experiment on A498 renal is greater than 41.2 µM; in the experiment with IGROV1 ovarian, greater than 100 µM; in the experiment on HOP-92 NSCLC it was greater than 86.3 µM; in the experiment with A549 NSCLC, greater than 100 µM; with SNB-75 CNS, greater than 100 µM; with RPMI-8226 leukemia it was greater than 100 µM. Besides, the TGI in the experiment with KM12 colon is greater than 100 µM; with CAKI-1 renal, 61.2 µM; with HT29 colon, greater than 100 µM; in the experiment on NCI-H522 lung it was greater than 100 µM.

Regarding `Cc1ccc2c(=O)cc(-c3ccc(-c4ccccc4)s3)[nH]c2n1`, the TGI with A498 renal was 72.7 µM; in the experiment with IGROV1 ovarian it was greater than 100 µM; in the experiment with HOP-92 NSCLC, greater than 85.6 µM; in the experiment on A549 NSCLC, greater than 100 µM; in the experiment with SNB-75 CNS, greater than 100 µM; in the experiment on RPMI-8226 leukemia, greater than 100 µM. The TGI in the experiment on KM12 colon was greater than 100 µM; in the experiment on CAKI-1 renal it was greater than 100 µM; in the experiment on HT29 colon, greater than 100 µM; in the experiment with NCI-H522 lung it was greater than 56.7 µM.

As to `O=[As](O)(O)c1ccc(N=Nc2ccc(O)cc2)cc1`, the TGI with A498 renal, in the experiment on IGROV1 ovarian, in the experiment on HOP-92 NSCLC, with A549 NSCLC, in the experiment on SNB-75 CNS and in the experiment on RPMI-8226 leukemia was greater than 100 µM in each case. Further, the TGI with KM12 colon, in the experiment on CAKI-1 renal, with HT29 colon and in the experiment on NCI-H522 lung was greater than 100 µM throughout.

As for `Brc1ccc(-c2cn3ccncc3n2)cc1`, the TGI in the experiment with A498 renal, with IGROV1 ovarian, with HOP-92 NSCLC, with A549 NSCLC, in the experiment on SNB-75 CNS and in the experiment on RPMI-8226 leukemia was greater than 100 µM in each case. Moreover, the TGI in the experiment on KM12 colon, with CAKI-1 renal, with HT29 colon and in the experiment with NCI-H522 lung was greater than 100 µM throughout.

In the case of `CC[C@@H](/C=C\CCC(=O)C[C@H](O)CCC=C(C)C)O[Si](C(C)C)(C(C)C)C(C)C`, the TGI with A498 renal, in the experiment on IGROV1 ovarian, in the experiment with HOP-92 NSCLC, in the experiment with A549 NSCLC, in the experiment on SNB-75 CNS and in the experiment with RPMI-8226 leukemia was greater than 100 µM each time. The TGI with KM12 colon, in the experiment with CAKI-1 renal, in the experiment with HT29 colon and with NCI-H522 lung was greater than 100 µM each time.

Regarding `Cc1ccc(/C=C2\CCCC(CN3CCCCC3)C2=O)cc1` (stereo not given), the TGI was 26.1 µM with A498 renal; 3.72 µM with IGROV1 ovarian; 4.04 µM in the experiment on HOP-92 NSCLC; 33.1 µM with A549 NSCLC; 17.7 µM in the experiment with SNB-75 CNS; greater than 100 µM with RPMI-8226 leukemia. The TGI with KM12 colon turned out to be 2.72 µM; in the experiment with CAKI-1 renal, 3.19 µM; with HT29 colon, 3.28 µM; in the experiment on NCI-H522 lung, 3.22 µM.

Take `CC(C)[C@@H]1ON1C(C)c1ccccc1` (stereo not given in full): the TGI with A498 renal, with IGROV1 ovarian, with HOP-92 NSCLC, in the experiment on A549 NSCLC, in the experiment on SNB-75 CNS and in the experiment on RPMI-8226 leukemia was greater than 100 µM throughout. In addition, the TGI is greater than 100 µM with KM12 colon, 34.7 µM in the experiment with CAKI-1 renal, greater than 100 µM in the experiment on HT29 colon and greater than 100 µM in the experiment with NCI-H522 lung.

For `CC(C)(CC(O)C#N)/[N+]([O-])=[N+](\[O-])C(C)(C)CC(O)C#N` (stereo not given), the TGI in the experiment on A498 renal was greater than 100 µM; with IGROV1 ovarian, 49.6 µM; in the experiment with HOP-92 NSCLC it was 41.9 µM; in the experiment on A549 NSCLC, greater than 100 µM; in the experiment on SNB-75 CNS, 76.2 µM; in the experiment on RPMI-8226 leukemia, 44.8 µM. Besides, the TGI was greater than 100 µM in the experiment with KM12 colon, 30.4 µM with CAKI-1 renal, greater than 100 µM with HT29 colon and 35.4 µM in the experiment with NCI-H522 lung.

`Cc1ccc(N=Nc2c(O)c(C(=O)Nc3ccccc3)cc3ccccc23)c([N+](=O)[O-])c1`: the TGI with A498 renal, in the experiment with IGROV1 ovarian, in the experiment on HOP-92 NSCLC, with A549 NSCLC, in the experiment with SNB-75 CNS and with RPMI-8226 leukemia was greater than 100 µM in each case. For the same compound, the TGI in the experiment with KM12 colon, in the experiment with CAKI-1 renal, in the experiment with HT29 colon and in the experiment on NCI-H522 lung was greater than 100 µM in each case.

On to `CCOc1ccc(-n2nnc3c(N)nc(N)nc32)cc1`, for which the TGI with A498 renal, in the experiment with IGROV1 ovarian, in the experiment with HOP-92 NSCLC, in the experiment with A549 NSCLC, with SNB-75 CNS and in the experiment with RPMI-8226 leukemia was greater than 100 µM each time. Also, the TGI in the experiment on KM12 colon, in the experiment with CAKI-1 renal, with HT29 colon and with NCI-H522 lung was greater than 100 µM in each case.

(Values after PubChem BioAssay (NCI).)
